What was measured:
HCV NS5B = molecular target: T1, HCV NS5B (Hepatitis C virus genotype 1b, UniProt Q9WMX2); assay: Modified HCV NS5B RdRp enzyme assay (preincubation protocol); format: biochemical
T1 construct: The protein was expressed with an 18 amino acid C-terminal truncation to enhance the solubility; made in house; host or cells: E. coli BL21(DE3)
Procedure: The cDNA encoding the NS5B protein of HCV, genotype 1b, was cloned into the pET21a expression vector. The protein was expressed with an 18 amino acid C-terminal truncation to enhance the solubility. The E. coli competent cell line BL21(DE3) was used for expression of the protein. Cultures were grown at 37° C. for ˜4 hours until the cultures reached an optical density of 2.0 at 600 nm. The cultures were cooled to 20° C. and induced with 1 mM IPTG. Fresh ampicillin was added to a final concentration of 50 μg/ml and the cells were grown overnight at 20° C.
Cell pellets (3 L) were lysed for purification to yield 15-24 mgs of purified NS5B. The lysis buffer consisted of 20 mM Tris-HCl, pH 7.4, 500 mM NaCl, 0.5% triton X-100, 1 mM DTT, 1 mM EDTA, 20% glycerol, 0.5 mg/ml lysozyme, 10 mM MgCl2, 15 ug/ml deoxyribonuclease I, and Complete TM protease inhibitor tablets (Roche). After addition of the lysis buffer, frozen cell pellets were resuspended using a tissue homogenizer. To reduce the viscosity of the sample, aliquots of the lysate were sonicated on ice using a microtip attached to a Branson sonicator. The sonicated lysate was centrifuged at 100,000×g for 1 hr at 4° C. and filtered through a 0.2 μm filter unit (Corning).
The protein was purified using three sequential chromatography steps: Heparin sepharose CL-6B, polyU sepharose 4B, and […] SP sepharose (Pharmacia). The chromatography buffers were identical to the lysis buffer but contained no lysozyme, deoxyribonuclease I, MgCl2 or protease inhibitor and the NaCl concentration of the buffer was adjusted according to the requirements for charging the protein onto the column. Each column was eluted with a NaCl gradient which varied in length from 5-50 column volumes depending on the column type. After the final chromatography step, the resulting purity of the enzyme is >90% based on SDS-PAGE analysis. The enzyme was aliquoted and stored at −80° C.
HCV RdRp genotype 1b assays were run in a final volume of 60 μl in 96 well plates (Costar 3912). The assay buffer is composed of 20 mM Hepes, pH 7.5, 2.5 mM KCl, 2.5 mM MgCl2, 1 mM DTT, 1.6 U RNAse inhibitor (Promega N2515), 0.1 mg/ml BSA (Promega R3961), and 2% glycerol. All compounds were serially diluted (3-fold) in DMSO and diluted further in water such that the final concentration of DMSO in the assay was 2%. HCV RdRp genotype 1b enzyme was used at a final concentration of 28 nM. A polyA template was used at 6 nM, and a biotinylated oligo-dT12 primer was used at 180 nM final concentration. Template was obtained commercially (Amersham 27-4110). Biotinylated primer was prepared by Sigma Genosys. 3H-UTP was used at 0.6 μCi (0.29 μM total UTP). Reactions were initiated by the addition of enzyme, incubated at 30° C. for 60 min, and stopped by adding 25 μl of 50 mM EDTA containing SPA beads (4 μg/μl, Amersham RPNQ 0007). Plates were read on a Packard TOPCOUNT® NXT after >1 hr incubation at room temperature.
A modified enzyme assay was performed essentially as described for the standard enzyme assay except for the following: The biotinylated oligo dT12 primer was precaptured on streptavidin-coated SPA beads by mixing primer and beads in assay buffer and incubating at room temperature for one hour. Unbound primer was removed after centrifugation. The primer-bound beads were resuspended in 20 mM Hepes buffer, pH 7.5 and used in the assay at final concentrations of 20 nM primer and 0.67 μg/μl beads. Order of addition in the assay: enzyme (14 nM) was added to diluted compound followed by the addition of a mixture of template (0.2 nM), 3H-UTP (0.6 μCi, 0.29 μM), and primer-bound beads, to initiate the reaction; concentrations given are final. Reactions were allowed to proceed for 4 hours at 30° C.
IC50 values for compounds were determined using seven different [I]. IC50 values were calculated from the inhibition using the formula y=A+((B−A)/(1+((C/x)^D))).

HCV replicon = HCV replicon assay (FRET or luciferase reporter); format: cell-based; conditions: Hepatitis C virus, one of the methods described
Source text: To perform the HCV FRET screening assay, 96-well cell culture plates were used, The FRET peptide (Anaspec, Inc.) (Taliani et al., Anal. Biochem., 240:60-67 (1996)) contains a fluorescence donor, EDANS, near one end of the peptide and an acceptor, DABCYL, near the other end. The fluorescence of the peptide is quenched by […] resonance energy transfer (RET) between the donor and the acceptor, but as the NS3 protease cleaves the peptide the products are released from RET quenching and the fluorescence of the donor becomes apparent. The assay reagent was made as follows: 5× cell Luciferase cell culture lysis reagent from Promega (#E153A) diluted to 1× with dH2O, NaCl added to 150 mM final, the FRET peptide diluted to 20 μM final from a 2 mM stock.
To prepare plates, HCV replicon cells, with or without a Renilla luciferase reporter gene, were trypsinized and placed into each well of a 96-well plate with titrated test compounds added in columns 3 through 12; columns 1 and 2 contained a control compound (HCV protease inhibitor), and the bottom row contained cells without compound. The plates were then placed in a CO2 incubator at 37° C.
Subsequent to addition of the test compounds described above (FRET Assay Preparation), at various times the plate was removed and Alamar blue solution (Trek Diagnostics, #00-100) was added per well as a measure of cellular toxicity. After reading in a CYTOFLUOR® 4000 instrument (PE Biosystems), plates were rinsed with PBS and then used for FRET assay by the addition of 30 ul of the FRET peptide assay reagent described above (FRET Assay Preparation) per well. The plate was then placed into the CYTOFLUOR® 4000 instrument which had been set to 340 excite/490 emission, automatic mode for 20 cycles and the plate read in a kinetic mode. Typically, the signal to noise using an endpoint analysis after the reads was at least three-fold. Alternatively, after Alamar blue reading, plates were rinsed with PBS, 50 ul of DMEM (high glucose) without phenol red was added and plates were then used for luciferase assay using the Promega DUAL-GLO® Luciferase Assay System.
Compound analysis was determined by quantification of the relative HCV replicon inhibition and the relative cytotoxicity values. To calculate cytoxicity values, the average Alamar Blue fluorescence signals from the control wells were set as 100% non-toxic. The individual signals in each of the compound test wells were then divided by the average control signal and multiplied by 100% to determine […]. To calculate the HCV replicon inhibition values, an average background value was obtained from the two wells containing the highest amount of HCV protease inhibitor at the end of the assay period. These numbers were similar to those obtained from naïve Huh-7 cells.
The background numbers were then subtracted from the average signal obtained from the control wells and this number was used as 100% activity. The individual signals in each of the compound test wells were then divided by the averaged control values after background subtraction and multiplied by 100% to determine percent activity. EC50 values for a protease inhibitor titration were calculated as the concentration which caused a 50% reduction in FRET or luciferase activity. The two numbers generated for the compound plate, percent cytoxicity and percent activity were used to determine compounds of interest for further analysis.
The HCV replicon luciferase assay was developed to monitor the inhibitory effects of compounds described in the disclosure on HCV viral replication. Utilization of a replicon luciferase reporter assay was first described by Krieger et al (Krieger, N. et al., J. Virology, 75(10):4614-4624 (2001)). HUH-7 cells, constitutively expressing the HCV replicon, were grown in Dulbecco's Modified Eagle Media (DMEM) (Gibco-BRL) containing 10% Fetal calf serum (FCS) (Sigma) and 1 mg/ml G418 (Gibco-BRL). […]

T1 sequence (Q9WMX2 2420-2992): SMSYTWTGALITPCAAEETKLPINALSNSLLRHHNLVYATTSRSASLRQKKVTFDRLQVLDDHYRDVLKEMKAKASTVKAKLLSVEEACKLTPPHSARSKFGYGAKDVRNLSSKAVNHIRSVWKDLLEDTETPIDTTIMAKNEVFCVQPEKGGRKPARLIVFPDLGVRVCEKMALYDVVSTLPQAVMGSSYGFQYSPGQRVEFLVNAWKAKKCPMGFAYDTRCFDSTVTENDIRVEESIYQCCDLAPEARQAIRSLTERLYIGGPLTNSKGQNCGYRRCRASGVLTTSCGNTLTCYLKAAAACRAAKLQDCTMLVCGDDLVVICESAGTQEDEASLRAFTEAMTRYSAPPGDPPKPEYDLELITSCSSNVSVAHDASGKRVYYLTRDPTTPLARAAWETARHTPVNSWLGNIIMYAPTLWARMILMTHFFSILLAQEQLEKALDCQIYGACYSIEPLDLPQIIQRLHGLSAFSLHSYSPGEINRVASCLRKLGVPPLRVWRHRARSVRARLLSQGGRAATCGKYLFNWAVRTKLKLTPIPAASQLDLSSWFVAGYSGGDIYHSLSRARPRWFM

SMILES | IC50 (HCV NS5B; class symbol) | IC50 (HCV NS5B; exact value) | EC50 (HCV replicon; class symbol) | EC50 (HCV replicon; exact value)
COc1ccc2c(c1)C=C(c1c(C(=O)N3C4CCC3CN(C)C4)cnn1C1CCC1)Cn1c-2c(C2CCCCC2)c2ccc(C(=O)NS(=O)(=O)CC(C)C)cc21 | 1.7 to 500 nM | 3.3 nM | 1.7 to 500 nM | 8.1 nM
COc1ccc2c(c1)C=C(c1c(C(=O)N3CCCOCC3)cnn1C1CCC1)Cn1c-2c(C2CCCCC2)c2ccc(C(=O)NS(=O)(=O)C(C)C)cc21 | 1.7 to 500 nM | 5.4 nM | 1.7 to 500 nM | 7.6 nM
COc1ccc2c(c1)C=C(c1c(C(=O)N3C[C@@H](C)O[C@@H](C)C3)ncn1C1CC1)Cn1c-2c(C2CCCCC2)c2ccc(C(=O)NS(=O)(=O)C(C)C)cc21 | 1.7 to 500 nM |  | 1.7 to 500 nM | 
COc1ccc2c(c1)C=C(c1c(C(=O)N3CCOCC3)ncn1C1CC1)Cn1c-2c(C2CCCCC2)c2ccc(C(=O)NS(=O)(=O)C(C)C)cc21 | 1.7 to 500 nM |  | 1.7 to 500 nM | 
COc1ccc2c(c1)C=C(c1c(C(=O)N3C4CCCC3COC4)cnn1C1CCC1)Cn1c-2c(C2CCCCC2)c2ccc(C(=O)NS(=O)(=O)C(C)C)cc21 | 1.7 to 500 nM |  | 1.7 to 500 nM | 
COc1ccc2c(c1)C=C(c1c(C(=O)N3C[C@@H](C)O[C@@H](C)C3)ncn1C1CCC1)Cn1c-2c(C2CCCCC2)c2ccc(C(=O)NS(=O)(=O)C(C)C)cc21 | 1.7 to 500 nM |  | 1.7 to 500 nM | 
COc1ccc2c(c1)C=C(c1c(C(=O)N3CCOCC3)ncn1C1CCC1)Cn1c-2c(C2CCCCC2)c2ccc(C(=O)NS(=O)(=O)C(C)C)cc21 | 1.7 to 500 nM | 9.7 nM | 1.7 to 500 nM | 70 nM
COc1ccc2c(c1)C=C(c1c(C(=O)N3CCN(C4CCCC4)CC3)cnn1C1CCC1)Cn1c-2c(C2CCCCC2)c2ccc(C(=O)NS(=O)(=O)C(C)C)cc21 | 1.7 to 500 nM |  | 1.7 to 500 nM | 
COc1ccc2c(c1)C=C(c1c(C(=O)N3C[C@@H](C)O[C@@H](C)C3)c(C)nn1C1CCC1)Cn1c-2c(C2CCCCC2)c2ccc(C(=O)NS(=O)(=O)C(C)C)cc21 | 1.7 to 500 nM | 6.4 nM | 1.7 to 500 nM | 10 nM
CCN1C[C@@H]2C[C@H]1CN2C(=O)c1cnn(C2CCC2)c1C1=Cc2cc(OC)ccc2-c2c(C3CCCCC3)c3ccc(C(=O)NS(=O)(=O)N(C)C)cc3n2C1 | 1.7 to 500 nM |  | 1.7 to 500 nM | 
CCN1C[C@@H]2C[C@H]1CN2C(=O)c1c(C)nn(C2CCC2)c1C1=Cc2cc(OC)ccc2-c2c(C3CCCCC3)c3ccc(C(=O)NS(=O)(=O)N(C)C)cc3n2C1 | 1.7 to 500 nM | 3.4 nM | 1.7 to 500 nM | 10 nM
CCN1C[C@@H]2C[C@H]1CN2C(=O)c1c(C)nn(C2CCC2)c1C1=Cc2cc(OC)ccc2-c2c(C3CCCCC3)c3ccc(C(=O)NS(=O)(=O)C(C)C)cc3n2C1 | 1.7 to 500 nM |  | 1.7 to 500 nM | 
COc1ccc2c(c1)C=C(c1c(C(=O)N3C4CCC3CN(C)C4)cnn1C1CCC1)Cn1c-2c(C2CCCCC2)c2ccc(C(=O)NS(=O)(=O)N(C)C)cc21 | 1.7 to 500 nM |  | 1.7 to 500 nM | 
COc1ccc2c(c1)C=C(c1c(C(=O)N3C4CCC3CN(C)C4)c(C)nn1C1CCC1)Cn1c-2c(C2CCCCC2)c2ccc(C(=O)NS(=O)(=O)N(C)C)cc21 | 1.7 to 500 nM |  | 1.7 to 500 nM | 
COc1ccc2c(c1)C=C(c1c(C(=O)N3C4CCC3CN(C)C4)c(C)nn1C1CCC1)Cn1c-2c(C2CCCCC2)c2ccc(C(=O)NS(=O)(=O)C(C)C)cc21 | 1.7 to 500 nM |  | 1.7 to 500 nM | 
COc1ccc2c(c1)C=C(c1c(C(=O)N3CCOCC3)c(C)nn1C1CCC1)Cn1c-2c(C2CCCCC2)c2ccc(C(=O)NS(=O)(=O)C(C)C)cc21 | 1.7 to 500 nM |  | 1.7 to 500 nM | 
COC[C@@H]1CN(C(=O)c2c(C)nn(C3CCC3)c2C2=Cc3cc(OC)ccc3-c3c(C4CCCCC4)c4ccc(C(=O)NS(=O)(=O)C(C)C)cc4n3C2)CCO1 | 1.7 to 500 nM |  | 1.7 to 500 nM | 
COc1ccc2c(c1)C=C(c1c(C(=O)N3C4CCC3COC4)c(C)nn1C1CCC1)Cn1c-2c(C2CCCCC2)c2ccc(C(=O)NS(=O)(=O)C(C)C)cc21 | 1.7 to 500 nM |  | 1.7 to 500 nM | 
COc1ccc2c(c1)C=C(c1c(C(=O)N3C[C@@H]4C[C@H]3CO4)c(C)nn1C1CCC1)Cn1c-2c(C2CCCCC2)c2ccc(C(=O)NS(=O)(=O)C(C)C)cc21 | 1.7 to 500 nM |  | 1.7 to 500 nM | 
COc1ccc2c(c1)C=C(c1c(C(=O)N3C4CCCC3COC4)c(C)nn1C1CCC1)Cn1c-2c(C2CCCCC2)c2ccc(C(=O)NS(=O)(=O)C(C)C)cc21 | 1.7 to 500 nM |  | 1.7 to 500 nM | 
COc1ccc2c(c1)C=C(c1c(C(=O)N3CCN(C)CC3)c(C)nn1C1CCC1)Cn1c-2c(C2CCCCC2)c2ccc(C(=O)NS(=O)(=O)C(C)C)cc21 | 1.7 to 500 nM |  | 1.7 to 500 nM | 
COc1ccc2c(c1)C=C(c1c(C(=O)N3C[C@@H](C)N(C)[C@@H](C)C3)c(C)nn1C1CCC1)Cn1c-2c(C2CCCCC2)c2ccc(C(=O)NS(=O)(=O)C(C)C)cc21 | 1.7 to 500 nM |  | 1.7 to 500 nM | 

Reference: patent publication US8133884B2, “Compounds for the treatment of hepatitis C” (priority 2008, dated 2012)
